Measurements taken from patent publication US9783552B2, “Soluble guanylate cyclase activators” (MERCK SHARP & DOHME CORP., priority 2013, dated 2017).

Biological target: T1, sGC α1/β1 heterodimer (Homo sapiens, UniProt Q02108+Q02153)
T1 construct: expressed in transfected cells
T1 sequence (Q02108 1-690): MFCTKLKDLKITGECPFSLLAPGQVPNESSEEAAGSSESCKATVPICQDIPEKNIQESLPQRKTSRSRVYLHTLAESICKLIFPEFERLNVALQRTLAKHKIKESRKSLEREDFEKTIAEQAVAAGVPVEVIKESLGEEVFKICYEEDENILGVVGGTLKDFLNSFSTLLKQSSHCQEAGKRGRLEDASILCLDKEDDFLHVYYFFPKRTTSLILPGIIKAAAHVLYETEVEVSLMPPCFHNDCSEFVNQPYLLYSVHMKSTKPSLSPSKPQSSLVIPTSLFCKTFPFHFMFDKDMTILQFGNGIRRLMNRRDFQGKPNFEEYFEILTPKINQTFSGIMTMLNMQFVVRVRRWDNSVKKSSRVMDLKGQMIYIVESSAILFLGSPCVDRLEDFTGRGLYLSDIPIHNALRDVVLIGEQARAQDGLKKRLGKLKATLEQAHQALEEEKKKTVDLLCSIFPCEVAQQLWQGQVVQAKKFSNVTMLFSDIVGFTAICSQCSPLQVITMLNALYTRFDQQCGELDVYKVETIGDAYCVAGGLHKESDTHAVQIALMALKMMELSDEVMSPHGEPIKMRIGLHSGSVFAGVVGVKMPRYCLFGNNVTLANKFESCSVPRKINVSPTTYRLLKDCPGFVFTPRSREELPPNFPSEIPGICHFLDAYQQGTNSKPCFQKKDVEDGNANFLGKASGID
T1 sequence (Q02153 1-619): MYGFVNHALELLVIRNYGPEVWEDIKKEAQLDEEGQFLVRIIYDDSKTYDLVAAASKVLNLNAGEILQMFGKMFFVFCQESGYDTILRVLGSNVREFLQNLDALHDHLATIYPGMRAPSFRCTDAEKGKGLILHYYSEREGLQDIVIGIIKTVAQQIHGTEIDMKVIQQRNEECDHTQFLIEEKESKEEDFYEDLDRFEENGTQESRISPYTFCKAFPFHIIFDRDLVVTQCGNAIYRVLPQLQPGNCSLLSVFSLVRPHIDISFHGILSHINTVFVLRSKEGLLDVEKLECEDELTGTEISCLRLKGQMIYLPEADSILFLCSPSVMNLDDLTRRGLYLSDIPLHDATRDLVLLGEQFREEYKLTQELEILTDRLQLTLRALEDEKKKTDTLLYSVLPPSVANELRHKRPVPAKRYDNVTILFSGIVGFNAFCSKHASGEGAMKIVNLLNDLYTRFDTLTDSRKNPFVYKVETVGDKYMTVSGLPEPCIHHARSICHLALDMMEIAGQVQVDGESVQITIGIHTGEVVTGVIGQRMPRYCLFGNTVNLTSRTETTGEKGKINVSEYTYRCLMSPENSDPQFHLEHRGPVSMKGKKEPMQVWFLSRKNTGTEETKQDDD
Assay: Cell-Based sGC Functional Assay (CASA Assay)
Conditions: CHO-K1/sGC cells; for EC50: intracellular cGMP by HTRF, 1 hr at 37° C., IP from 4P fit, presence or absence of 1 μM DETA-NO not given; for Emax: cGMP as percentage of maximum cGMP production of Compound A (=100% activation), read-out: % ACT (percent activation)
Description: Biological Assays: Cell-Based sGC Functional Assay (CASA Assay)
sGC is a heme-containing enzyme that converts GTP to secondary messenger cGMP. Increases in cGMP levels affect several physiological processes including vasorelaxation through multiple downstream pathways. […] Heme-dependent activators (HDAs) preferentially activate sGC containing a ferrous heme group. To determine the effect of sGC activators on enzyme activity, the CASA assay was developed to monitor the generation of cGMP in a cell line that stably expresses the heterodimeric sGC protein.
A CHO-K1 cell line stably expressing the sGC α1/β1 heterodimer was generated using a standard transfection protocol. CHO-K1 cells were transfected with plasmids pIREShyghsGCα1 and pIRESneo-hsGCβ1 simultaneously using FUGENE reagent. Clones that stably express both subunits were selected with hygromycin and neomycin for ˜2 weeks. Clone #7 was chosen for the assay and was designated CHO-K1/sGC. CHO-K1/sGC cells were maintained in F-K12 medium containing 10% heat-inactivated Fetal Bovine Serum (FBS), 100 μg/mL penicillin/streptomycin, 0.5 mg/mL hygromycin and 0.25 mg/mL G418. The cells were then cryopreserved in LN2. On the day of the assay, cells were thawed and resuspended in EBSS Assay Buffer (EAB, Sigma, E3024) supplemented with 5 mM MgCl2, 10 mM HEPES (4-(2-hydroxyethyl)piperazine-1-ethanesulfonic acid) and 0.05% BSA (bovine serum albumin) and cell density was then adjusted to 4×10^5/mL with EAB. IBMX (3-isobutyl-1-methylxanthin, 0.5 mM) was added to inhibit degradation of cGMP. Compounds were diluted from DMSO stock solutions and added to the assay at a final DMSO concentration of 2.5%. Cells were incubated with compounds in the presence and absence of 1 μM of Diethylenetriamine/nitric oxide adduct (DETA-NO; Sigma, 17018) for 1 hr at 37° C. At the end of the incubation period, the reaction was terminated and the cells were lysed with the detection reagents from Cisbio Kits. The level of intracellular cGMP was determined using an HTRF-based assay kit (CisBio, 62GM2PEC), which detects the displacement of a fluorescence labeled cGMP from its specific antibody. The cGMP produced by test compounds was directly compared to the maximum cGMP production (this value was set to equal 100% activation) of the published sGC-HDA Compound A:
[drawing 123] (Example 1 in WO 2010/065275, published Jun. 10, 2010). The test compounds' activity was then expressed as a percentage of Compound A, the standard in every experiment. This percent activation was calculated either in the presence or absence of DETA-NO which was then plotted. IP and maximum fold induction was derived using ADA analysis software for 4P fit.

Structure (SMILES)	EC50	Emax
Cn1ncc2c(-c3nc(N)c4c(n3)NC(=O)C4(C)C(=O)NC3CC3)nc(Cc3cccc(F)c3F)nc21 (single isomer, unassigned) [Example 40, 4-Amino-N-cyclopropyl-2-(6-(2,3-difluorobenzyl)-1-methyl-1H-pyrazolo[3,4-d]pyrimidin-4-yl)-5-methyl-6-oxo-6,7-dihydro-5H-pyrrolo[2,3-d]pyrimidine-5-carboxamide]	55 nM	121%
Cn1ncc2c(-c3nc(N)c4c(n3)NC(=O)C4(C)C3CCCCC3)nc(CCC(F)(F)C(F)(F)F)nc21 (single isomer, unassigned) [Example 18, 4-Amino-5-cyclohexyl-5-methyl-2-(1-methyl-6-(3,3,4,4,4-pentafluorobutyl)-1H-pyrazolo[3,4-d]pyrimidin-4-yl)-5H-pyrrolo[2,3-d]pyrimidin-6(7H)-one]	171 nM	122%
[2H]C([2H])([2H])n1ncc2c(-c3nc(N)c4c(n3)NC(=O)C4(C(N)=O)C(C)C)nc(CCC(F)(F)C(F)(F)F)nc21 (single isomer, unassigned) [Example 37, 4-Amino-5-isopropyl-2-(6-(3,3,4,4,4-pentafluorobutyl)-1-trideuteriomethyl-1H-pyrazolo[3,4-d]pyrimidin-4-yl)-6-oxo-6,7-dihydro-5H-pyrrolo[2,3-d]pyrimidine-5-carboxamide]	540 nM	93%
[2H]C([2H])([2H])n1ncc2c(-c3nc(N)c4c(n3)NC(=O)C4(C(=O)NC3CC3)C(C)C)nc(CCC(F)(F)C(F)(F)F)nc21 (single isomer, unassigned) [Example 35, 4-Amino-N-cyclopropyl-5-isopropyl-2-(6-(3,3,4,4,4-pentafluorobutyl)-1-trideuteriomethyl-1H-pyrazolo[3,4-d]pyrimidin-4-yl)-6-oxo-6,7-dihydro-5N-pyrrolo[2,3-d]pyrimidine-5-carboxamide]	62 nM	107%
CCn1ncc2c(-c3nc(N)c4c(n3)NC(=O)C4(C)c3ccc(F)cc3)nc(CCC(F)(F)C(F)(F)F)nc21 (single isomer, unassigned) [Example 19, 4-Amino-2-(1-ethyl-6-(3,3,4,4,4-pentafluorobutyl)-1H-pyrazolo[3,4-d]pyrimidin-4-yl)-5-(4-fluorophenyl)-5-methyl-5H-pyrrolo[2,3-d]pyrimidin-6(7H)-one]	53 nM	119%
CCOC(=O)C1(C2CC2)C(=O)Nc2nc(-c3nc(CCCC(F)(F)F)nc4c3cnn4C)nc(N)c21 (single isomer, unassigned) [Example 27, Ethyl 4-amino-5-cyclopropyl-2-(1-methyl-6-(4,4,4-trifluorobutyl)-1H-pyrazolo[3,4-d]pyrimidin-4-yl)-6-oxo-6,7-dihydro-5H-pyrrolo[2,3-d]pyrimidine-5-carboxylate]	602 nM	98%
Cn1ncc2c(-c3nc(N)c4c(n3)NC(=O)C4(C)C(N)=O)nc(CCC(F)(F)C(F)(F)F)nc21 (single isomer, unassigned) [Example 30, 4-Amino-5-methyl-2-(1-methyl-6-(3,3,4,4,4-pentafluorobutyl)-1H-pyrazolo[3,4-d]pyrimidin-4-yl)-6-oxo-6,7-dihydro-5H-pyrrolo[2,3-d]pyrimidine-5-carboxamide]	245 nM	84%
[2H]C([2H])([2H])n1ncc2c(-c3nc(N)c4c(n3)NC(=O)C4(C)C(=O)NCC)nc(CCC(F)(F)C(F)(F)F)nc21 (single isomer, unassigned) [Example 39, 4-Amino-N-ethyl-5-methyl-2-(6-(3,3,4,4,4-pentafluorobutyl)-1-trideuteriomethyl-1H-pyrazolo[3,4-d]pyrimidin-4-yl)-6-oxo-6,7-dihydro-5H-pyrrolo[2,3-d]pyrimidine-5-carboxamide]	43 nM	104%
CCn1ncc2c(-c3nc(N)c4c(n3)NC(=O)C4(C)c3ccc(F)cc3)nc(CCCC(F)(F)F)nc21 (single isomer, unassigned) [Example 20, 4-Amino-2-(1-ethyl-6-(4,4,4-trifluorobutyl)-1H-pyrazolo[3,4-d]pyrimidin-4-yl)-5-(4-fluorophenyl)-5-methyl-5H-pyrrolo[2,3-d]pyrimidin-6(7H)-one]	143 nM	123%
Cn1ncc2c(-c3nc(N)c4c(n3)NC(=O)C4(C)c3ccc(Br)cc3)nc(CCC(F)(F)C(F)(F)F)nc21 (single isomer, unassigned) [Example 10, 4-Amino-5-(4-bromophenyl)-5-methyl-2-(1-methyl-6-(3,3,4,4,4-pentafluorobutyl)-1H-pyrazolo[3,4-d]pyrimidin-4-yl)-5H-pyrrolo[2,3-d]pyrimidin-6(7H)-one]	197 nM	116%
Cn1ncc2c(-c3nc(N)c4c(n3)NC(=O)C4(C)NC(=O)CC3CC3)nc(CCC(F)(F)C(F)(F)F)nc21 (stereo not shown) [Example 52, N-(4-Amino-5-methyl-2-(1-methyl-6-(3,3,4,4,4-pentafluorobutyl)-1H-pyrazolo[3,4-d]pyrimidin-4-yl)-6-oxo-6,7-dihydro-5H-pyrrolo[2,3-d]pyrimidin-5-yl)-2-cyclopropylacetamide]	614 nM	92%
Cn1ncc2c(-c3nc(N)c4c(n3)NC(=O)C4(C)c3ccccc3)nc(CCCC(F)(F)F)nc21 (single isomer, unassigned) [Example 3, 4-Amino-5-methyl-2-(1-methyl-6-(4,4,4-trifluorobutyl)-1H-pyrazolo[3,4-d]pyrimidin-4-yl)-5-phenyl-5H-pyrrolo[2,3-d]pyrimidin-6(7H)-one]	119 nM	132%
Cn1nnc2c(-c3nc(N)c4c(n3)NC(=O)C4(C)c3ccc(F)cc3)nc(Cc3cccc(F)c3F)nc21 (single isomer, unassigned) [Example 66]	156 nM	69%
Cn1nc(Cl)c2c(-c3nc(N)c4c(n3)NC(=O)C4(C)c3ccc(F)cc3)nc(CCC(F)(F)C(F)(F)F)nc21 (single isomer, unassigned) [Example 58, 4-Amino-2-(3-chloro-1-methyl-6-(3,3,4,4,4-pentafluorobutyl)-1H-pyrazolo[3,4-d]pyrimidin-4-yl)-5-(4-fluorophenyl)-5-methyl-5H-pyrrolo[2,3-d]pyrimidin-6(7H)-one]	632 nM	70%
